Test results taken from the supplement of paper PMC10307832.

Legend:
Assay in all cases: relative viability (nuclei count vs DMSO), 5 days (fraction); higher = more cells survive
[1] = compound: CC[C@H](Nc1ncnc2[nH]cnc12)c1nc2cccc(F)c2c(=O)n1-c1ccccc1 [Idelalisib] + CS(=O)(=O)N1CCN(Cc2cc3nc(-c4cccc5[nH]ncc45)nc(N4CCOCC4)c3s2)CC1 [Pictilisib] (partner 1 µM)
Procedure, shortened: (§1)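 Medians of duplicate plates are given as relative viability. That measure is the nuclei count in treated wells divided by the count in vehicle wells. Counts were taken on 4× images of lung cancer cell lines in 1536-well plates, 5 days after pin-tool dosing the day after seeding with one drug alone or a fixed anchor-drug dose plus five library-drug doses (not always all listed) in √10 steps.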

[2] = compound: Nc1nc2[nH]cc(CCc3ccc(C(=O)N[C@@H](CCC(=O)O)C(=O)O)cc3)c2c(=O)[nH]1 [Pemetrexed] + CC(=O)Nc1cccc(-n2c(=O)n(C3CC3)c(=O)c3c(Nc4ccc(I)cc4F)n(C)c(=O)c(C)c32)c1 [Trametinib] (partner 0.02 µM)
Procedure, shortened: as §1

[3] = compound: Nc1nc2[nH]cc(CCc3ccc(C(=O)N[C@@H](CCC(=O)O)C(=O)O)cc3)c2c(=O)[nH]1 [Pemetrexed] + O=C(c1cc(Cc2n[nH]c(=O)c3ccccc23)ccc1F)N1CCN(C(=O)C2CC2)CC1 [Olaparib] (partner 8 µM)
Procedure, shortened: as §1

[4] = compound: Nc1nc2[nH]cc(CCc3ccc(C(=O)N[C@@H](CCC(=O)O)C(=O)O)cc3)c2c(=O)[nH]1 [Pemetrexed] + Cc1nc(NC(=O)N2CCC[C@H]2C(N)=O)sc1-c1ccnc(C(C)(C)C(F)(F)F)c1 [Alpelisib] (partner 2 µM)
Procedure, shortened: as §1

Cell Line	relative viability ([1]; first compound 0.04 µM)	relative viability ([1]; first compound 0.1265 µM)	relative viability ([1]; first compound 0.4 µM)	relative viability ([1]; first compound 1.265 µM)	relative viability ([1]; first compound 4 µM)	relative viability ([2]; first compound 0.002 µM)	relative viability ([2]; first compound 0.006325 µM)	relative viability ([2]; first compound 0.02 µM)	relative viability ([2]; first compound 0.06325 µM)	relative viability ([2]; first compound 0.2 µM)	relative viability ([3]; first compound 0.002 µM)	relative viability ([3]; first compound 0.006325 µM)	relative viability ([3]; first compound 0.02 µM)	relative viability ([3]; first compound 0.06325 µM)	relative viability ([3]; first compound 0.2 µM)	relative viability ([4]; first compound 0.002 µM)	relative viability ([4]; first compound 0.006325 µM)	relative viability ([4]; first compound 0.02 µM)	relative viability ([4]; first compound 0.06325 µM)	relative viability ([4]; first compound 0.2 µM)
NCI-H2228	0.383	0.367	0.355	0.396	0.421	0.509	0.611	0.597	0.318	0.285	0.657	0.478	0.695	0.329	0.273	0.833	0.721	0.752	0.474	0.319
NCI-H2347	0.398	0.69	0.487	0.623	0.756	0.282	0.376	0.246	0.287	0.28	0.55	0.527	0.678	0.517	0.499	0.858	0.893	1.07	0.869	0.633
NCI-H2405	0.492	0.471	0.387	0.401	0.447	0.735	0.589	0.66	0.582	0.653	0.793	0.821	0.885	0.846	0.862	0.896	0.714	0.868	0.712	0.736
NCI-H3122	0.595	0.594	0.551	0.669	0.557	0.255	0.236	0.252	0.218	0.202	0.592	0.636	0.678	0.567	0.513	0.94	0.833	0.734	0.772	0.521
PC-3 [JPC-3]	0.895	0.749	0.73	0.737	0.601	0.748	0.666	0.683	0.657	0.725	1.03	1.18	1.19	1.14	1.08	0.948	1.04	1.04	1.03	0.972
